The values that follow are results of earlier work, collected in patent US8663696B2, “Film delivery system for tetrahydrolipstatin” (MonoSol Rx, LLC, priority 2007, dated 2014).

For data set [1] the following is noted: natural crystalline state.
The test system of data set [2] is lipase. As to conditions: background statement on the drug.

Consider `CCCCCCCCCCC[C@@H](C[C@@H]1OC(=O)[C@H]1CCCCCC)OC(=O)[C@H](CC(C)C)NC=O` [Tetrahydrolipstatin, (2S,3S,5S)-5-[(S)-2-formamido-4-methyl-valeranyloxy]-2-hexyl-3-hexadecanoic acid lactone], for which the water solubility result in data set [1] is “very water-insoluble”. For the same molecule, the “absorption of dietary fat blocked” value in data set [2] is given as “approximately 30%”.
